{"source": "patent US20080200438A1", "about": "“Treatment of Autoimmune Diseases” (priority 2005, published 2008)", "key": {"[1]": {"test_system": "acute experimental autoimmune encephalomyelitis (EAE)", "assay": "Acute EAE model", "format": "in vivo, Lewis rat", "settings": "for Prevention of disease symptoms in the acute EAE model: doses between 0.1 and 10 mg/kg/day, oral"}, "chronic EAE": {"test_system": "chronic EAE", "assay": "Chronic EAE model", "format": "in vivo, DA rat", "experimental": "Induction of AEA in DA rat is induced as described by Lorentzen et al, 1995, J. Neuroimmunol.; 63(2):193-205 and Adelmann et al, 1995, J. Neuroimmunol.; 63(1):17-27. Briefly, rats are immunized with a mixture of DA rat brain and DA rat and bovine spinal cord homogenate supplemented with 0.02 μg/ml purified recombinant rat MOG protein. The mixture is homogenized and then mixed 1:1 with complete Freund's adjuvant containing 4 mg/ml M. tuberculosis H37RA(CFA). The resultant mixture is then homogenized using a Polytron PT3100 homogenizer (Kinematica, Lucerne, Switzerland). Rats are then injected subcutaneously at the dorsal root of tail with a single injection of 200 μl antigen/CFA. The resultant chronic disease is evaluated using numeric scale of progressive paralysis: 0, no paralysis; 1, loss of tail tonicity; 2, hindlimb weakening or ataxia; 3, hindlimb paralysis with or without urinary incontinence; 4, hindlimb and forelimb paralysis; 5, moribund or death. Clinical scores are evaluated on a daily basis, while body weight is determined every other day. […] Treatment of animals begins at the peak clinical disease on the 12th day and continues daily the 33rd day post-immunization (total 22 days). The test compound or vehicle (for the control groups) is administered orally daily."}, "chronic-relapsing EAE": {"test_system": "chronic-relapsing EAE", "assay": "Chronic-relapsing EAE model", "format": "in vivo, Lewis rat", "settings": "0.3 mg/kg/day orally, day 16 to day 31", "excerpt": "Animal models: The monophasic model of acute experimental autoimmune encephalomyelitis (EAE) and the chronic relapsing form are considered to be instructive animal models for multiple sclerosis. EAE can be induced in susceptible animals by a single injection of CNS tissue or MBP emulsified in complete Freund's adjuvant into the base of the tail. A monophasic acute paralytic disease appears in susceptible rat strains, e.g., Lewis, Wistar rat, about 8-11 days post-sensitization. The symptomatic rats recover within the following 7 days, but in other species the attack is usually lethal. In the chronic relapsing disease models rats undergo one to three relapses following the acute disease bout. These relapses are usually from very mild to severe and are observed within 20-100 days after the acute bout.\nChronic-relapsing EAE is induced by injecting an emulsion of guinea pig spinal cord in complete Freund's adjuvant in the hind paws of Lewis rats. Six to ten rats per group are used and somatic symptoms are judged daily on a scale of 0-3. The number of diseased animals as well as the time of onset of the disease is recorded. […] The statistical significance between treated and untreated groups is analyzed on each day using ANOVA analysis of variance followed by Dunn's multiple comparisons. […]"}, "[2]": {"settings": "0.1 mg/kg p.o. daily days 0-13, female Lewis rats"}, "[3]": {"settings": "0.3 mg/kg p.o. daily days 0-13, female Lewis rats"}, "[4]": {"settings": "1 mg/kg p.o. daily days 0-13, female Lewis rats"}}, "note": "“Also recorded” adds a separate entry of the source.", "data": [{"molecule": "NC(CO)(CO)CCc1ccc(Sc2cccc(OCc3ccccc3)c2)cc1Cl", "note": "[Compound A, 2-amino-2-[4-(3-benzyloxyphenylthio)-2-chlorophenyl]ethyl-propane-1,3-diol]", "values": [{"measurement": "First symptoms on day", "setting": "[1]; [2]", "result": 9, "unit": "days"}, {"measurement": "Number of Animals with EAE/total Day 12", "setting": "[1]; [2]", "result": "0/5"}, {"measurement": "Number of Animals with EAE/total Day 14", "setting": "[1]; [2]", "result": "3/4"}, {"measurement": "First symptoms on day", "setting": "[1]; [3]", "result": 14, "unit": "days"}, {"measurement": "Number of Animals with EAE/total Day 12", "setting": "[1]; [3]", "result": "0/5"}, {"measurement": "Number of Animals with EAE/total Day 14", "setting": "[1]; [3]", "result": "1/5"}, {"measurement": "First symptoms on day", "setting": "[1]; [4]", "result": ">14", "unit": "days"}, {"measurement": "Number of Animals with EAE/total Day 12", "setting": "[1]; [4]", "result": "0/5"}, {"measurement": "Number of Animals with EAE/total Day 14", "setting": "[1]; [4]", "result": "0/5"}, {"measurement": "Prevention of disease symptoms in the acute EAE model", "setting": "[1]", "result": "lead to prevention of disease symptoms; also recorded: prevents disease symptoms"}, {"measurement": "Inhibition of chronic EAE", "setting": "chronic EAE; 0.3, 0.1 or 0.03 mg/kg/d orally, day 12 to day 33 post-immunization", "result": "effectively inhibits chronic EAE"}, {"measurement": "Clinical disease compared to vehicle group", "setting": "chronic EAE; each dose (0.3, 0.1, 0.03 mg/kg/d orally), statistical analysis", "result": "significant reduction in clinical disease"}, {"measurement": "Prevention of clinical relapses in the chronic relapsing EAE model", "setting": "chronic-relapsing EAE", "result": "prevents clinical relapses"}]}, {"molecule": "C[C@](N)(CO)CCc1ccc(Sc2cccc(OCc3ccccc3)c2)cc1Cl", "note": "[Compound B, (R)-2-amino-4-[4-(3-benzyloxyphenylthio)-2-chlorophenyl]-2-methylbutane-1-ol]", "values": [{"measurement": "First symptoms on day", "setting": "[1]; [4]", "result": ">14", "unit": "days"}, {"measurement": "Number of Animals with EAE/total Day 12", "setting": "[1]; [4]", "result": "0/5"}, {"measurement": "Number of Animals with EAE/total Day 14", "setting": "[1]; [4]", "result": "0/5"}, {"measurement": "Prevention of disease symptoms in the acute EAE model", "setting": "[1]", "result": "lead to prevention of disease symptoms"}]}, {"molecule": "CC[C@](N)(CO)CCc1ccc(Sc2cccc(OCc3ccccc3)c2)cc1Cl", "note": "[Compound C, (R)-2-amino-4-[4-(3-benzyloxyphenylthio)-2-chlorophenyl]-2-ethylbutane-1-ol]", "values": [{"measurement": "First symptoms on day", "setting": "[1]; [4]", "result": ">14", "unit": "days"}, {"measurement": "Number of Animals with EAE/total Day 12", "setting": "[1]; [4]", "result": "0/5"}, {"measurement": "Number of Animals with EAE/total Day 14", "setting": "[1]; [4]", "result": "0/5"}, {"measurement": "Prevention of disease symptoms in the acute EAE model", "setting": "[1]", "result": "lead to prevention of disease symptoms"}]}]}
